Experiments:
[1] = system: prostaglandin biosynthesis in vivo (pleural lavage eicosanoids); experiment: Rat carrageenan pleural inflammation (CIP) model
Summary of the method: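 Male adrenalectomized Sprague-Dawley rats were dosed orally with compound suspended in PEG 400, 30 minutes before intrapleural 2% lambda carrageenan. Pleural lavage collected 4 hours later went into methanol (66% final), and eicosanoids were measured by EIA. Inhibition relative to control mean; ED50 by linear regression.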

[2] = target: T1, Human Whole Platelet Cyclooxygenase-1 (Homo sapiens, UniProt P23219); experiment: Human Whole Platelet Cyclooxygenase-1 assay (HWPX); assay type: cell-based; details: read-out: HWPX IC50 (parenthetical value)
T1 construct: from tissue; host or cells: human blood: isolated platelets (A4) or heparinised whole blood (A9)
Summary of the method: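 Washed platelets from healthy-donor ACD blood were pre-incubated with compound for 10 min, then stimulated with calcium ionophore A23187 (8.8 μM final) for 10 min. Reaction stopped with cold 6 mM EDTA; thromboxane in supernatants quantified with a commercial kit.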

T1 sequence (P23219 24-599): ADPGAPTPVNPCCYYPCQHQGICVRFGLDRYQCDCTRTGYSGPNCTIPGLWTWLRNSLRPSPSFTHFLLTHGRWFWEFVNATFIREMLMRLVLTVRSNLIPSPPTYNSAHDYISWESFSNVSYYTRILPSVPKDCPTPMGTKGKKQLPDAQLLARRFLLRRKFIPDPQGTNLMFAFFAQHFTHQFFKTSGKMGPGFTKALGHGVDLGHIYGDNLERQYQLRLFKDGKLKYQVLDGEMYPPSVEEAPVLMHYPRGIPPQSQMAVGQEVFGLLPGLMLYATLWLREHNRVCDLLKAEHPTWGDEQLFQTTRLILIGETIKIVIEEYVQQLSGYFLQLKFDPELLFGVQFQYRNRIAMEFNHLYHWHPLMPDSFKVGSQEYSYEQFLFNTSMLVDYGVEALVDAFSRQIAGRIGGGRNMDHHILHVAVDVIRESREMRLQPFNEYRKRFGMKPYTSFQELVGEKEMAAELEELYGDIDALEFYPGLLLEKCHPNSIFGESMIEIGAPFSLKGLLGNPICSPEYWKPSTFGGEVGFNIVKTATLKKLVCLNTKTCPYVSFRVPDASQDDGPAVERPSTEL

NS(=O)(=O)c1ccc(-c2cnn(-c3ccc(F)cc3)c(=O)c2-c2ccc(F)cc2)cc1 [Example 89]
inhibition in vivo at 10 mg/kg ([1]; 4 h, 10 mpk oral, read-out: CIP % Inhib. @ 10 mpk): 68.3%
ED50 ([1]; oral): 3.4 mg/kg
IC50 [2]: 2100 nM

Source: patent US20020028938A1, “Prostaglandin endoperoxide H synthase biosynthesis inhibitors” (priority 1997, published 2002)
